A short description of data set [1]: in vitro. On the set-up: Viability of infected HeLa host cells, resazurin conversion, bulk resorufin fluorescence relative to DMSO. The conditions noted are these: human, hela cells; bulk resorufin, mean of 2.
In data set [2] the test system is T1, CTL2-GFP (C. trachomatis L2/434/Bu, GFP-expressing).
T1 construct: L2/434/Bu, GFP-expressing
Nature of the data set: microbe, parasite or virus in culture. On the set-up: Intracellular C. trachomatis growth in HeLa cells, bulk GFP fluorescence relative to DMSO. The conditions noted are these: Chlamydia trachomatis, HeLa, 28.5 h; bulk GFP, mean of 2; read-out: % of control remaining. Here is the method:
MICs were calculated as described above.

The subject of data set [3] is T2, C. trachomatis L2/434/Bu expressing GFP (CTL2-GFP).
T2 construct: L2/434/Bu GFP intracellular growth in HeLa cells
Nature of the data set: microbe, parasite or virus in culture. On the set-up: C. trachomatis total inclusion area by high-content imaging, normalised to DMSO. The conditions noted are these: Chlamydia trachomatis, HeLa, 28.5 h; total inclusion area; read-out: % of control remaining. In outline: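 Infected cells treated with library compounds were read for bulk GFP (chlamydial growth) and resorufin fluorescence (host viability), then fixed, Hoechst-stained and imaged. Inclusion area and number from GFP, plus nuclei counts, served as additional growth and viability proxies; MICs derived as previously described.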

Molecules are shown by their SMILES.

The record followed here is paper PMC12040169 (PLOS Biology, 2025).

Broadly, the viability is a read-out of living cells in per cent, often relative to untreated cells. With `CC(=O)Nc1ccc(-c2cccc(COC3CCN(C(=O)c4ccc(OC(C)C)cc4)CC3)c2)cc1` [CBK149485], in data set [1], the viability at 28.5 h, 1 µM amounted to 89.4%; the viability at 28.5 h, 5 µM was determined as 92.4%; the viability at 28.5 h, 10 µM amounted to 93.9%. For the same molecule, in data set [2], the activity at 1 µM turned out to be 107%, the activity at 5 µM was found to be 30.6% and the activity at 10 µM amounted to 6.64%. Besides, in data set [3], the activity at 1 µM is 97.4%, the activity at 5 µM worked out at 32.5% and the activity at 10 µM amounted to 7.93%.

Turning to `O=S(=O)(Nc1ncccn1)c1ccc(NC(=S)Nc2ccc3c(c2)OCO3)cc1` [CBK267046], in data set [1], the viability at 28.5 h, 1 µM was 114%; the viability at 28.5 h, 5 µM came out at 121%; the viability at 28.5 h, 10 µM was 119%. For the same molecule, in data set [2], the activity at 1 µM amounted to 54.3%, the activity at 5 µM came out at 10.7% and the activity at 10 µM was found to be 12.9%. In addition, in data set [3], the activity at 1 µM worked out at 88.8%, the activity at 5 µM came to 21.2% and the activity at 10 µM came to 18.3%.

For `O=[N+]([O-])c1cccc(C(Nc2cccnc2)c2cc(Cl)c3cccnc3c2O)c1` (stereo not drawn) [CBK268629], in data set [1], the viability at 28.5 h, 1 µM was determined as 93.9%; the viability at 28.5 h, 5 µM worked out at 88.9%; the viability at 28.5 h, 10 µM came out at 91.6%. Further, in data set [2], the activity at 1 µM worked out at 102%, the activity at 5 µM was 82% and the activity at 10 µM was 56.2%. Also, in data set [3], the activity at 1 µM stood at 104%, the activity at 5 µM was determined as 93.6% and the activity at 10 µM turned out to be 47.5%.

As to `O=C(NCCCn1ccnc1)c1cc(-c2cccc(Br)c2)nc2ccccc12` [CBK265476], in data set [1], the viability at 28.5 h, 1 µM came to 108%; the viability at 28.5 h, 5 µM worked out at 115%; the viability at 28.5 h, 10 µM is 116%. Further, in data set [2], the activity at 1 µM came out at 88.9%, the activity at 5 µM was 13% and the activity at 10 µM stood at 0%. Also, in data set [3], the activity at 1 µM was 76.4%, the activity at 5 µM stood at 28.5% and the activity at 10 µM was 3.75%.

Consider `CN1CCCN(c2cc(C(F)(F)F)c3scc(C(=O)NCc4cccc(F)c4F)c3n2)CC1` [CBK036386T], for which, in data set [1], the viability at 28.5 h, 1 µM stood at 99%; the viability at 28.5 h, 5 µM was 101%; the viability at 28.5 h, 10 µM was determined as 101%. In addition, in data set [2], the activity at 1 µM was found to be 124%, the activity at 5 µM was determined as 97.2% and the activity at 10 µM turned out to be 57.7%. Also, in data set [3], the activity at 1 µM is 69.4%, the activity at 5 µM was 59.6% and the activity at 10 µM was 46.9%.

Regarding `CC(C)c1ccc(S(=O)(=O)Nc2cccc(SC(F)(F)F)c2)cc1` [CBK044581], in data set [1], the viability at 28.5 h, 1 µM was determined as 96.5%; the viability at 28.5 h, 5 µM is 95.7%; the viability at 28.5 h, 10 µM was 103%. Further, in data set [2], the activity at 1 µM came out at 113%, the activity at 5 µM was determined as 76% and the activity at 10 µM was 82.6%. Besides, in data set [3], the activity at 1 µM is 116%, the activity at 5 µM was found to be 69.4% and the activity at 10 µM came out at 80.6%.

In the case of `COc1ccc([C@@]23CC=C(N(Cc4ccccc4)C(=O)Nc4ccc(F)c(F)c4)C[C@@H]2N(C)CC3)cc1OC` [CBK050179], in data set [1], the viability at 28.5 h, 1 µM stood at 93.3%; the viability at 28.5 h, 5 µM stood at 95%; the viability at 28.5 h, 10 µM was found to be 112%. In data set [2], the activity at 1 µM came to 105%, the activity at 5 µM came out at 86.7% and the activity at 10 µM was 69.8%. Further, in data set [3], the activity at 1 µM is 62.1%, the activity at 5 µM is 80.2% and the activity at 10 µM is 52.4%.

Regarding `FC(F)(F)c1ccc(N2CCNCC2)nc1OCc1ccc2c(c1)OCCO2` [CBK003994A], in data set [1], the viability at 28.5 h, 1 µM was 100%; the viability at 28.5 h, 5 µM was found to be 103%; the viability at 28.5 h, 10 µM was determined as 96.6%. In data set [2], the activity at 1 µM was determined as 106%, the activity at 5 µM is 40.3% and the activity at 10 µM was 22.5%. Besides, in data set [3], the activity at 1 µM was 82.5%, the activity at 5 µM was 8.88% and the activity at 10 µM came out at 7.41%.

Regarding `O=C(OCCC1SC(NC2CC3C=CC2C3)=NC1=O)c1ccc(Cl)c([N+](=O)[O-])c1` (stereo not drawn) [CBK200060T], in data set [1], the viability at 28.5 h, 1 µM amounted to 92.3%; the viability at 28.5 h, 5 µM amounted to 96.8%; the viability at 28.5 h, 10 µM came to 88.4%. Also, in data set [2], the activity at 1 µM worked out at 140%, the activity at 5 µM was 129% and the activity at 10 µM was 103%. Further, in data set [3], the activity at 1 µM is 132%, the activity at 5 µM turned out to be 108% and the activity at 10 µM was determined as 68.7%.

Consider `Cc1ccc(OCc2ccccc2)c(C(CCN(C(C)C)C(C)C)c2ccccc2)c1` (stereo not drawn) [CBK017906], for which, in data set [1], the viability at 28.5 h, 1 µM turned out to be 91.6%; the viability at 28.5 h, 5 µM was found to be 92.3%; the viability at 28.5 h, 10 µM was 86%. For the same molecule, in data set [2], the activity at 1 µM amounted to 148%, the activity at 5 µM amounted to 124% and the activity at 10 µM is 61.5%. In data set [3], the activity at 1 µM was 112%, the activity at 5 µM came out at 73.2% and the activity at 10 µM was 22%.

Consider `Cc1noc(NS(=O)(=O)c2ccc(NC(=O)CCN3C(=O)c4ccccc4C3=O)cc2)c1C` [CBK264091], for which, in data set [1], the viability at 28.5 h, 1 µM is 92.8%; the viability at 28.5 h, 5 µM is 92.8%; the viability at 28.5 h, 10 µM is 91.3%. In addition, in data set [2], the activity at 1 µM is 106%, the activity at 5 µM was 40.3% and the activity at 10 µM is 28.9%. Moreover, in data set [3], the activity at 1 µM amounted to 99.8%, the activity at 5 µM was determined as 67.5% and the activity at 10 µM is 32.7%.

In the case of `CNC(=S)N1CCN(c2nsc3ccccc23)CC1` [CBK288515], in data set [1], the viability at 28.5 h, 1 µM came out at 98.8%; the viability at 28.5 h, 5 µM came to 96.2%; the viability at 28.5 h, 10 µM was determined as 101%. In data set [2], the activity at 1 µM is 4.18%, the activity at 5 µM was 3.58% and the activity at 10 µM was found to be 5.68%. In data set [3], the activity at 1 µM was 0.93%, the activity at 5 µM was found to be 0.381% and the activity at 10 µM is 0.417%.

In the case of `CC(=O)NC[C@H]1CN(c2ccc(C3=CC[S+]([O-])CC3)c(F)c2)C(=O)O1` (stereo partly drawn) [CBK017555], in data set [1], the viability at 28.5 h, 1 µM turned out to be 88%; the viability at 28.5 h, 5 µM was 95.4%; the viability at 28.5 h, 10 µM came out at 86.3%. For the same molecule, in data set [2], the activity at 1 µM came to 134%, the activity at 5 µM is 11.9% and the activity at 10 µM was found to be 18.3%. Also, in data set [3], the activity at 1 µM was found to be 85.7%, the activity at 5 µM came to 7.09% and the activity at 10 µM was found to be 1.05%.

Consider `Oc1c(CN2CCN(c3ccc(F)cc3)CC2)cc(Br)c2cccnc12` [CBK268051], for which, in data set [1], the viability at 28.5 h, 1 µM is 96.2%; the viability at 28.5 h, 5 µM turned out to be 97.9%; the viability at 28.5 h, 10 µM came to 92.4%. In data set [2], the activity at 1 µM stood at 113%, the activity at 5 µM came out at 46.4% and the activity at 10 µM is 37.8%. For the same molecule, in data set [3], the activity at 1 µM worked out at 119%, the activity at 5 µM came out at 33% and the activity at 10 µM worked out at 37.5%.

As to `Cc1ccc(S(=O)(=O)Nc2ccc(S(=O)(=O)Nc3nccs3)cc2)c([N+](=O)[O-])c1` [CBK267410], in data set [1], the viability at 28.5 h, 1 µM came out at 110%; the viability at 28.5 h, 5 µM was 97.6%; the viability at 28.5 h, 10 µM amounted to 98.2%. Also, in data set [2], the activity at 1 µM turned out to be 17.1%, the activity at 5 µM is 7.21% and the activity at 10 µM is 1.76%. Further, in data set [3], the activity at 1 µM was 23%, the activity at 5 µM came out at 5.7% and the activity at 10 µM stood at 1.86%.

Take `O=[N+]([O-])c1cc2c(cc1C(Nc1ccccn1)c1cc(Cl)c3cccnc3c1O)OCO2` (stereo not drawn) [CBK267795]: in data set [1], the viability at 28.5 h, 1 µM amounted to 95.1%; the viability at 28.5 h, 5 µM came to 98.7%; the viability at 28.5 h, 10 µM was determined as 93.2%. Further, in data set [2], the activity at 1 µM was determined as 109%, the activity at 5 µM is 82.9% and the activity at 10 µM worked out at 79.7%. In data set [3], the activity at 1 µM was 94.3%, the activity at 5 µM stood at 40.8% and the activity at 10 µM amounted to 25.9%.

`CC(C)(C)CC(C)(C)NC(=S)Nc1ccc2nc(-c3ccccn3)c(-c3ccccn3)nc2c1` [CBK265118]: in data set [1], the viability at 28.5 h, 1 µM turned out to be 110%; the viability at 28.5 h, 5 µM was found to be 106%; the viability at 28.5 h, 10 µM turned out to be 98%. Further, in data set [2], the activity at 1 µM is 95.9%, the activity at 5 µM is 66.8% and the activity at 10 µM was 47.2%. Besides, in data set [3], the activity at 1 µM amounted to 82.1%, the activity at 5 µM was 31.9% and the activity at 10 µM was found to be 16.8%.

As for `Cn1c(=O)c2c(ncn2Cc2ccccc2)n(C)c1=O` [CBK133402], in data set [1], the viability at 28.5 h, 1 µM was 111%; the viability at 28.5 h, 5 µM amounted to 110%; the viability at 28.5 h, 10 µM stood at 109%. In data set [2], the activity at 1 µM stood at 119%, the activity at 5 µM amounted to 115% and the activity at 10 µM was determined as 111%. Further, in data set [3], the activity at 1 µM came out at 100%, the activity at 5 µM was found to be 51.9% and the activity at 10 µM turned out to be 66.7%.

With `Cc1ccccc1Nc1nc(N)nc(CN2CCCC(C(F)(F)F)C2)n1` (stereo not drawn) [CBK305073], in data set [1], the viability at 28.5 h, 1 µM came to 96.6%; the viability at 28.5 h, 5 µM was 101%; the viability at 28.5 h, 10 µM was 97.7%. In data set [2], the activity at 1 µM stood at 153%, the activity at 5 µM came to 120% and the activity at 10 µM was 139%. In addition, in data set [3], the activity at 1 µM turned out to be 144%, the activity at 5 µM worked out at 60.7% and the activity at 10 µM came out at 97.8%.
